We go through 27 compounds from PubChem BioAssay AID330 (DTP/NCI, 2004).

The test system of this assay is P388 leukemia ip, CD2F1 mice, survival T/C. As to the kind of experiment: NCI In Vivo Anticancer Drug Screen. Data for tumor model P388 Leukemia (intraperitoneal) in CD2F1 (CDF1) mice. As to conditions: endpoint: median survival time, higher = longer survival. The method in brief: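 Mice carrying the transplanted tumor received test compound or vehicle. Survival was recorded in each group, and the value is the treated-group measurement divided by that of the vehicle-treated control group.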

The mark [1] stands for this setting: dose: 50.0 mg/kg/injection, schedule: Q01DX009 (ip), vehicle: saline with Tween-80.
Where [2] appears, read: dose: 100.0 mg/kg/injection, schedule: Q01DX009 (ip), vehicle: saline with Tween-80.
The mark [3] stands for this setting: dose: 50.0 mg/kg/injection, schedule: Q01DX005 (ip), vehicle: Klucel (hydroxypropylcellulose) (HPC).
Where [4] appears, read: dose: 100.0 mg/kg/injection, schedule: Q01DX005 (ip), vehicle: Klucel (hydroxypropylcellulose) (HPC).
[5] abbreviates: dose: 200.0 mg/kg/injection, schedule: Q01DX005 (ip), vehicle: Klucel (hydroxypropylcellulose) (HPC).
Where [6] appears, read: dose: 6.25 mg/kg/injection, schedule: Q01DX005 (ip), vehicle: saline with Tween-80.
The mark [7] stands for this setting: dose: 12.5 mg/kg/injection, schedule: Q01DX005 (ip), vehicle: saline with Tween-80.
Setting [8] is: dose: 25.0 mg/kg/injection, schedule: Q01DX005 (ip), vehicle: saline with Tween-80.
The mark [9] stands for this setting: dose: 50.0 mg/kg/injection, schedule: Q01DX005 (ip), vehicle: saline with Tween-80.
[10] abbreviates: dose: 60.0 mg/kg/injection, schedule: Q01DX005 (ip), vehicle: saline with Tween-80.
[11] abbreviates: dose: 120.0 mg/kg/injection, schedule: Q01DX005 (ip), vehicle: saline with Tween-80.
[12] abbreviates: dose: 100.0 mg/kg/injection, schedule: Q01DX005 (ip), vehicle: saline with Tween-80.
Setting [13] is: dose: 200.0 mg/kg/injection, schedule: Q01DX005 (ip), vehicle: saline with Tween-80.
Setting [14] is: dose: 25.0 mg/kg/injection, schedule: Q01DX009 (ip), vehicle: saline with Tween-80.
[15] abbreviates: dose: 200.0 mg/kg/injection, schedule: Q01DX009 (ip), vehicle: saline with Tween-80.

“And” between values parts separate entries of the source, which are not always exact repeats. Equal entries are not always repeated. Toxic doses and inconclusive results are not listed.

As for `CC(C)(C)N=C(Cc1ccccc1)N1CCCCC1`, the T/C is, setting by setting: under setting [1], 100 % of control; under setting [2], 96 % of control.
With `N=C(N)Sc1cc(Br)c[n+]([O-])c1`, the T/C reads like this: under setting [3], 104 % of control; under setting [4], 102 % of control; under setting [5], 100 % of control.
As for `O=C1[N-]C(=S)c2cccn21.O=C1[N-]C(=S)c2cccn21.[Pt+2]`, the T/C reads like this: under setting [6], 104 % of control; under setting [7], 107 % of control; under setting [8], 105 % of control; under setting [9], 105 % of control.
On to `COc1cccc(N=Nc2c(-c3ccccc3)nn(C(N)=S)c2-c2ccccc2)c1`, for which the T/C is, setting by setting: (dose: 100.0 mg/kg/injection, schedule: Q04DX002 (ip), vehicle: saline with Tween-80) 98 % of control; (dose: 200.0 mg/kg/injection, schedule: Q04DX002 (ip), vehicle: saline with Tween-80) 95 % of control; (dose: 400.0 mg/kg/injection, schedule: Q04DX002 (ip), vehicle: saline with Tween-80) 88 % of control.
`CCCCCN(CCCCC)CC(O)c1ccc(OC)c2ccccc12` (stereo unspecified): the T/C was 88 % of control under setting [3] and 88 % of control under setting [4].
Consider `COc1ccc2c(c1)CCC(c1nc3ccc(C)cc3[nH]c1=O)C2=O` (stereo unspecified), for which the T/C is, setting by setting: under setting [10], 103 % of control; under setting [11], 108 % of control.
As to `O=C(O)CCc1nc(-c2ccccc2)ncc1C(=O)O`, the T/C by setting is: (dose: 100.0 mg/kg/injection, schedule: Q04DX003 (ip), vehicle: saline with Tween-80) 100 % of control; (dose: 200.0 mg/kg/injection, schedule: Q04DX003 (ip), vehicle: saline with Tween-80) 100 % of control; (dose: 400.0 mg/kg/injection, schedule: Q04DX003 (ip), vehicle: saline with Tween-80) 98 % of control.
For `COc1ccc(OC)c(/C=N/N=C2\C(=O)Nc3c(Cl)cc(Cl)cc32)c1`, the T/C reads like this: under setting [9], 97 % of control; under setting [12], 98 % of control; under setting [13], 92 % of control.
With `CCOC(=O)CC(Cc1cc(OC)ccc1OC)(C(C)=O)C(C)=O`, the T/C (dose: 25.0 mg/kg/injection, schedule: Q01DX009 (ip), vehicle: other) is 100 % of control; the T/C (dose: 50.0 mg/kg/injection, schedule: Q01DX009 (ip), vehicle: other) was 100 % of control; the T/C (dose: 100.0 mg/kg/injection, schedule: Q01DX009 (ip), vehicle: other) was 100 % of control; the T/C (dose: 200.0 mg/kg/injection, schedule: Q01DX009 (ip), vehicle: other) is 98 % of control; the T/C (dose: 400.0 mg/kg/injection, schedule: Q01DX009 (ip), vehicle: other) is 100 % of control.
As for `O=S(=O)(c1ccccc1)N1CCCCN(S(=O)(=O)c2ccccc2)COC1`, the T/C reads like this: under setting [3], 104 % of control; under setting [4], 102 % of control; under setting [5], 102 % of control.
With `Cc1ccc(NC(=O)Nc2cccnc2)cc1NC(=O)Nc1cccnc1`, the T/C runs as follows: (dose: 50.0 mg/kg/injection, schedule: Q01DX009 (ip), vehicle: Klucel (hydroxypropylcellulose) (HPC)) 102 % of control; (dose: 100.0 mg/kg/injection, schedule: Q01DX009 (ip), vehicle: Klucel (hydroxypropylcellulose) (HPC)) 110 % of control; (dose: 200.0 mg/kg/injection, schedule: Q01DX009 (ip), vehicle: Klucel (hydroxypropylcellulose) (HPC)) 100 % of control.
Turning to `CC(C)C(O)(C(=O)OCC1=CC[N+]2(C)CCC(O)C12)C(C)O` (stereo unspecified), the T/C runs as follows: (dose: 25.0 mg/kg/injection, schedule: Q01DX005 (ip), vehicle: water) 103 % of control; (dose: 50.0 mg/kg/injection, schedule: Q01DX005 (ip), vehicle: water) 108 % of control; (dose: 100.0 mg/kg/injection, schedule: Q01DX005 (ip), vehicle: water) 103 % of control; (dose: 200.0 mg/kg/injection, schedule: Q01DX005 (ip), vehicle: water) 100 % of control.
Regarding `CCOc1ccc(C(C)c2cc3c(cc2O)OCO3)cc1` (stereo unspecified), the T/C under setting [10] is 105 % of control; the T/C under setting [11] was 104 % of control; the T/C (dose: 240.0 mg/kg/injection, schedule: Q01DX005 (ip), vehicle: saline with Tween-80) is 109 % of control.
`Cc1ccccc1N=Nc1c(O)n(-c2ccccc2Cl)c(=S)n(-c2ccccc2)c1=O`: the T/C is 102 % of control (dose: 25.0 mg/kg/injection, schedule: Q01DX001 (ip), vehicle: Klucel (hydroxypropylcellulose) (HPC)); 104 % of control (dose: 50.0 mg/kg/injection, schedule: Q01DX001 (ip), vehicle: Klucel (hydroxypropylcellulose) (HPC)); 101 % of control (dose: 100.0 mg/kg/injection, schedule: Q01DX001 (ip), vehicle: Klucel (hydroxypropylcellulose) (HPC)).
`NNC(=O)c1ccccc1N`: the T/C was 96 % of control (dose: 25.0 mg/kg/injection, schedule: Q01DX009 (ip), vehicle: water) and 96 % of control (dose: 50.0 mg/kg/injection, schedule: Q01DX009 (ip), vehicle: water).
With `Fc1cccc(C(Nc2nncs2)Nc2nncs2)c1`, the T/C under setting [3] was 108 % of control and 97 % of control; the T/C under setting [4] was 112 % of control and 114 % of control; the T/C (dose: 400.0 mg/kg/injection, schedule: Q01DX005 (ip), vehicle: Klucel (hydroxypropylcellulose) (HPC)) was 159 % of control.
Take `CCOC1c2cc3c(cc2NC(=O)N1C)OCO3` (stereo unspecified): the T/C runs as follows: (dose: 37.5 mg/kg/injection, schedule: Q01DX009 (ip), vehicle: saline with Tween-80) 97 % of control; (dose: 75.0 mg/kg/injection, schedule: Q01DX009 (ip), vehicle: saline with Tween-80) 94 % of control; (dose: 150.0 mg/kg/injection, schedule: Q01DX009 (ip), vehicle: saline with Tween-80) 100 % of control.
On to `CCOC(=O)CCC(C(=O)c1cccnc1)c1ccccn1` (stereo unspecified), for which the T/C is, setting by setting: (dose: 100.0 mg/kg/injection, schedule: Q01DX001 (ip), vehicle: saline) 104 % of control; (dose: 200.0 mg/kg/injection, schedule: Q01DX001 (ip), vehicle: saline) 101 % of control; (dose: 400.0 mg/kg/injection, schedule: Q01DX001 (ip), vehicle: saline) 99 % of control.
As for `CCCCCCC(/C=C/c1ccc(Cl)c(Cl)c1)=N\Nc1ccc(Cl)c(Cl)c1`, the T/C is 90 % of control under setting [14]; 88 % of control and 93 % of control under setting [1]; 94 % of control under setting [2]; 87 % of control under setting [15].
In the case of `Cc1ccc(NC(=S)C#N)cc1Cl`, the T/C by setting is: under setting [6], 90 % of control; under setting [7], 92 % of control; under setting [8], 90 % of control.
On to `CCN(CC)CCNC(=O)c1ccc(NCN2C(=O)NC(c3ccccc3)(c3ccccc3)C2=O)cc1`, for which the T/C is 104 % of control under setting [10] and 110 % of control under setting [11].
`[O-][n+]1ccc(C2CO2)cc1` (stereo unspecified): the T/C by setting is: (dose: 50.0 mg/kg/injection, schedule: Q01DX009 (ip), vehicle: saline) 93 % of control; (dose: 100.0 mg/kg/injection, schedule: Q01DX009 (ip), vehicle: saline) 101 % of control; (dose: 200.0 mg/kg/injection, schedule: Q01DX009 (ip), vehicle: saline) 98 % of control.
With `NC(=S)n1nc(-c2ccccc2)c(N=Nc2ccccc2C(F)(F)F)c1-c1ccccc1`, the T/C is, setting by setting: under setting [9], 102 % of control; under setting [12], 93 % of control; under setting [13], 88 % of control.
With `CSCCC(NC(=O)OCC1c2ccccc2-c2ccccc21)C(=O)O` (stereo unspecified), the T/C under setting [3] is 103 % of control and the T/C under setting [4] was 100 % of control.
Regarding `CN(C)C(=S)S/C=C\C(=O)O`, the T/C was 97 % of control (dose: 6.25 mg/kg/injection, schedule: Q04DX003 (ip), vehicle: Klucel (hydroxypropylcellulose) (HPC)); 97 % of control (dose: 12.5 mg/kg/injection, schedule: Q04DX003 (ip), vehicle: Klucel (hydroxypropylcellulose) (HPC)); 100 % of control (dose: 25.0 mg/kg/injection, schedule: Q04DX003 (ip), vehicle: Klucel (hydroxypropylcellulose) (HPC)); 88 % of control (dose: 400.0 mg/kg/injection, schedule: Q04DX003 (ip), vehicle: Klucel (hydroxypropylcellulose) (HPC)).
Take `COC(=O)c1nc2c(n(C)/c1=N/C(=O)Nc1ccccc1)CCCC2`: the T/C under setting [14] was 120 % of control, the T/C under setting [1] is 124 % of control, the T/C under setting [2] is 216 % of control and the T/C under setting [15] was 117 % of control.
Consider `CN(CCCN(C)N=Nc1ccccc1C(=O)O)N=Nc1ccccc1C(=O)O`, for which the T/C runs as follows: under setting [2], 86 % of control; under setting [15], 90 % of control.
